Measured values reported in patent US20250268826A1, “IONIZABLE LIPIDOID COMPOSITIONS AND THERAPEUTIC USES THEREOF” (Flagship Pioneering Innovations VII, LLC, priority 2023, published 2025).

Columns and labels:
[1] = LNP Zeta potential measured using a Zetasizer (Malvern); type: physicochemical; conditions: for Zeta potential: hEPO mRNA, N:P 6; for Zeta potential (mV): LNP with hEPO mRNA, N:P ratio 6
[2] = Apparent pKa of the LNPs by fluorescence based TNS assay; conditions: Vaccine Study 2; LNP with spike mRNA, 50/10/38.5/1.5 mol % ionizable lipid:helper lipid:cholesterol:DMG-PEG2k, N-to-P ratio 6
[3] = Encapsulation efficiency (EE %) by fluorescence based Ribogreen assay; type: physicochemical
[4] = LNP size and polydispersity index (PDI) by dynamic light scattering (DLS); type: physicochemical
[5] = Vaccine Study 2, LNP with spike mRNA, 50/10/38.5/1.5 mol % ionizable lipid:helper lipid:cholesterol:DMG-PEG2k, N-to-P ratio 6
[6] = Example 19 Study 1, LNP with SARS-CoV-2 spike mRNA, N:P 6, standard mol. ratios unless noted "opt"
[7] = Table 1, LNP lipid:DSPC:Cholesterol:DMG-PEG2k 50:10:38.5:1.5 mol %, hEPO mRNA, N:P 6
[8] = Table 10, LNP with hEPO mRNA, Lipid:DSPC:Cholesterol:DMG-PEG2k 50:10:38.5:1.5 mol %, N:P ratio 6, DLS
[9] = Table 11, LNP with hEPO mRNA, Lipid:DSPC:Cholesterol:DMG-PEG2k 50:10:38.5:1.5 mol % (ALC-0315: 46.3:9.4:42.7:1.6), N:P ratio 6, HEPES/sodium chloride/sucrose buffer, stored at −80C

Compound: CCCCCCCCCCCOC(=O)CCCCCN(CCO)CCCCCCCC(=O)OC(CCCCCCCC)CCCCCCCC [SM-102, reference compound]
- Zeta potential ([1]; Table 1, LNP lipid:DSPC:Cholesterol:DMG-PEG2k 50:10:38.5:1.5 mol %): −3.729 mV
- Zeta potential ([1]; Table 7, LNP 50:10:38.5:1.5 mol %, helper lipid DSPC): −17.15 mV
- Zeta potential ([1]; Table 8, LNP 50:10:38.5:1.5 mol %): −9.7 mV
- Zeta potential (mV) ([1]; Table 10, Lipid:DSPC:Cholesterol:DMG-PEG2k 50:10:38.5:1.5 mol %): −5.9 mV
- Zeta potential (mV) ([1]; Table 11, Lipid:DSPC:Cholesterol:DMG-PEG2k 50:10:38.5:1.5 mol % (ALC-0315: 46.3:9.4:42.7:1.6), HEPES/sodium chloride/sucrose buffer, stored at −80C): −1.0 mV
- Zeta (mV) [1, 5]: −4.1 mV
- Apparent pKa [2]: 7.2
- EE (%) [3, 6]: 91.5%
- EE (%) [3, 5]: 97.8%
- PDI [4, 6]: 0.065
- Size [4, 6]: 94.8 nm
- PDI [4, 7]: 0.074
- Size [4, 7]: 81.8 nm
- PDI ([4]; Table 7, LNP 50:10:38.5:1.5 mol %, helper lipid DSPC, hEPO mRNA, N:P 6): 0.041
- Size ([4]; Table 7, LNP ionizable lipid:Helper Lipid:Cholesterol:DMG-PEG2k 50:10:38.5:1.5 mol %, helper lipid DSPC, hEPO mRNA, N:P 6): 75.3 nm
- PDI ([4]; Table 8, LNP 50:10:38.5:1.5 mol %, hEPO mRNA, N:P 6): 0.042
- Size ([4]; Table 8, LNP Lipid:DSPC:Cholesterol:DMG-PEG2k 50:10:38.5:1.5 mol %, hEPO mRNA, N:P 6): 80.3 nm
- PDI ([4]; Table 9, LNP 50:10:38.5:1.5 mol %, hEPO mRNA, N:P 6): 0.098
- Size ([4]; Table 9, LNP Lipid:DSPC:Cholesterol:DMG-PEG2k 50:10:38.5:1.5 mol %, hEPO mRNA, N:P 6): 80.7 nm
- PDI [4, 8]: 0.272
- Size (nm) [4, 8]: 56.5 nm
- PDI [4, 9]: 0.087
- Size (nm) [4, 9]: 69.6 nm
- PDI [4, 5]: 0.127
- Size (nm) [4, 5]: 88.4 nm
